# Experimental data as given in PMC6014686, “Thienopyrimidinone Based Sirtuin-2 (SIRT2)-Selective Inhibitors Bind in the Ligand Induced Selectivity Pocket” (Journal of Medicinal Chemistry, 2017).
# What was measured:
# [1] = tested on: Parkinsonian neuronal cell death model; design: method as in PMID 25395356; details: cited from earlier work
# SIRT1 = molecular target: T1, SIRT1 (Homo sapiens, UniProt Q96EB6); design: method as in PMID 25395356; details: reported earlier; cited from earlier work
# T1 sequence (Q96EB6 1-747): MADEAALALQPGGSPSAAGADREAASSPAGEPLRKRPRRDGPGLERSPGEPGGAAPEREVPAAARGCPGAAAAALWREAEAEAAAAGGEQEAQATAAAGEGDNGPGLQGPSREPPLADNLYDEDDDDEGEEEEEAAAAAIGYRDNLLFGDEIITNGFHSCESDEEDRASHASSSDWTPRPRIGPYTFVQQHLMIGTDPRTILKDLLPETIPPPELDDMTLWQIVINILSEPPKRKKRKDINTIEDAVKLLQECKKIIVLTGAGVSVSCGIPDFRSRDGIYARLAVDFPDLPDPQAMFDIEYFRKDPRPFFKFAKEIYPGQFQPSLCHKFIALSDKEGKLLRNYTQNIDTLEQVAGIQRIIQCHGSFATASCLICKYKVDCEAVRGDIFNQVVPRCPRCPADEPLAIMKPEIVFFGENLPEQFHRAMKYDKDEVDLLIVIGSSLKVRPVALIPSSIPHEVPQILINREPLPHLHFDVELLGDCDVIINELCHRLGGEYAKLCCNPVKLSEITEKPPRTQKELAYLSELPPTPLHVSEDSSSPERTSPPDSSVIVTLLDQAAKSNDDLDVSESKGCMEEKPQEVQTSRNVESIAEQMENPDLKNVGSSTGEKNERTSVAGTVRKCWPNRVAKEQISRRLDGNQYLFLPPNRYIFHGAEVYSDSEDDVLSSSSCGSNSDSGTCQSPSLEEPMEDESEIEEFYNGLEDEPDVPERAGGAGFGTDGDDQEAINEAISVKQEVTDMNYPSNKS
# [2] = tested on: acetylated (lysine-40) α-tubulin in MCF-7 cells; experiment: Tubulin acetylation assay, Western blot in MCF-7 cells with TSA; details: 0-50 μM for 24 h with 50 nM TSA, N = 3
# SIRT3 = molecular target: T2, SIRT3 (Homo sapiens, UniProt Q9NTG7); design: method as in PMID 25395356; details: reported earlier; cited from earlier work
# T2 sequence (Q9NTG7 1-399): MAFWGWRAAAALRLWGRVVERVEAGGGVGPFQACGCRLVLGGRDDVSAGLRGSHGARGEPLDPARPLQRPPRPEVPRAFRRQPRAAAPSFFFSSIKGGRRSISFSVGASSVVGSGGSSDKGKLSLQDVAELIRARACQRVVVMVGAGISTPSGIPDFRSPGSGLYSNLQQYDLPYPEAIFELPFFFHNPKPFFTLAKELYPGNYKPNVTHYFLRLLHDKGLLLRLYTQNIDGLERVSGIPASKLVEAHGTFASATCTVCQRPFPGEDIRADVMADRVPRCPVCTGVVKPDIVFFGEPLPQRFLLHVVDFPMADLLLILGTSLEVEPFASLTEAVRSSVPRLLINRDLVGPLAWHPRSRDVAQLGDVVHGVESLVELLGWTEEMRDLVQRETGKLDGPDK
# SIRT5 = tested on: SIRT5; design: method as in PMID 25395356; details: cited from earlier work
smiles,measurement,setting,value
COc1ccc2ccccc2c1Cn1cnc2sc3c(c2c1=O)CCC(NCc1cccnc1)C3 (stereo not drawn) [19a],neuroprotection,[1],showed neuroprotection
same,SIRT2/SIRT1 selectivity,SIRT1,>100
same,effect on α-tubulin acetylation level,[2],showed increased acetylated α-tubulin level at 20 μM and decreased level at 50 μM
same,SIRT2/SIRT3 selectivity,SIRT3,>100
same,IC50,SIRT5; Figure 1,> 100 µM
same,selectivity for SIRT2 in comparison to SIRT5,SIRT5; previous study,more than 100
